Results reported in patent US20220396819A1, “METHOD FOR PRODUCING PEPTIDE HAVING PHYSIOLOGICAL ACTIVITY, AND PEPTIDE COMPRISING SHORT LINKER” (priority 2019, published 2022).
Positions of bridges follow the written chain, without caps; N, C: chain ends. No end group written: not given here.

Assays:
Format in all cases: cell-based
HuCCT1 cells [1] = test: Tubular structure formation of HuCCT1 cells in collagen gel; conditions: 40 ng/mL, day 7
Text: It is known that HGF is allowed to act on HUVEC cells and HuCCT1 cells contained in collagen gel to form a tubular structure (K. Ito, et al. Nat. Commun. 6, 6373, 2015). It has also been reported that a Met full agonist having a function similar to that of HGF can form a tubular structure in the above cells, whereas a partial agonist having only a partial function cannot promote the formation of a tubular structure (W. Miao, et al. Int. J. Mol. Sci. 19, 3141, 2018). Therefore, it was decided to confirm whether the HGF-PAS dimer peptide was a full agonist or a partial agonist by using a tubular structure formation experiment using HuCCT1 cells.
To 8 equivalents of CellMatrix type IA (Nitta Gelatin), 1 equivalent of 10-fold concentrated D-MEM/F12 (Thermo Fisher Scientific) and 1 equivalent of reconstitution buffer (22 g/L sodium bicarbonate, 47.7 g/L HEPES, 0.05N sodium hydroxide aqueous solution) were mixed in order on ice. HuCCT1 cells were added at 25,000 cells per mL of the mixture and mixed on ice. To a 48-well cell culture plate, 400 μL of the above mixture was added, and the mixture was allowed to stand for 4 hours under the conditions of 37° C. and 5% CO2 for gelation. Onto the formed intracellular encapsulated collagen gel, 500 μL of RPMI 1640 medium containing 10% FBS was added. The cell-stimulating group was cultured by adding 35 ng/mL HGF or 40 ng/mL AET-PAS-aMD4dY-PEG11. […]

HuCCT1 cells [2] = test: Wound healing effect, scratch in HuCCT1 cell culture; conditions: 33 ng/mL HGF or 100 ng/mL peptide, N=4, FIG. 16
Experimental: HGF has been reported to promote cell wound healing ability by activating Met (K. Ito, et al. Nat. Commun. 6, 6373, 2015). Therefore, HuCCT1 cell culture was used to evaluate whether the HGF-PAS dimer peptide would promote wound healing as HGF.
To 96-well cell culture plates, 50,000 HuCCT1 cells suspended in RPMI 1640 medium with 10% FBS were added per well and incubated overnight under the conditions of 37° C. and 5% CO2. Cells in the center of the culture wells were scraped using a 1000 μL Thermo Scientific ART chip (Thermo Fisher Scientific) and washed with low serum medium (RPMI 1640 medium with 0.5% FBS). Low serum medium containing 33 ng/mL HGF or 100 ng/mL AET-PAS-aMD4dY-PEG11 was added, and the cells were cultured under the conditions of 37° C. and 5% CO2. BioStudio-T (Nikon Corporation) was used for cell observation, and cells were automatically photographed every hour. The rate of wound healing (μm/h) was calculated as ((wound width 1 hour after wound creation)−(wound width 7 hours after wound creation))/6 (N=4).

HuCCT1 cells [3] = test: Cell proliferation promoting activity in HuCCT1 cell culture; conditions: HGF 35 ng/mL or peptide 40 ng/mL, 5 days, N=3, FIG. 12
Experimental: HGF has been reported to promote cell proliferation by activating Met (K. Ito, et al. Nat. Commun. 6, 6373, 2015). Therefore, HuCCT1 cell culture was used to evaluate whether the HGF-PAS dimer peptide had the same activity of promoting cell proliferation as HGF.
RPMI 1640 medium (Nacalai Tesque) containing 5% FBS was added to a 24-well cell culture plate, and HuCCT1 cells were seeded at 5,000 cell/well. HGF at 35 ng/mL or AET-PAS-aMD4dY-PEG11 at 40 ng/mL was added, and the cells were cultured at 37° C. and 5% CO2 for 5 days. The cells were detached with 0.25% Trypsin/EDTA (Thermo Fisher Scientific) and the number of cells was quantified with Countess Automated Cell Counter (Thermo Fisher Scientific) (N=3).

Substance | agonist type (full or partial) for Met (HuCCT1 cells [1]) | improvement of the rate of wound healing (HuCCT1 cells [2]) | proliferation ability relative to the non-added group (Mock) (HuCCT1 cells [3])
AETCRQFNRRTHEVWNLDCGAAPAAPAPAAPAAPAPAAPAAPGCRQFNRRTHEVWNLDC (disulfide 4-19, 44-59; also: PEG11) [AET-PAS-aMD4dY-PEG11] | full agonist for Met | about 1.6 times | about 2.5 times
HGF: recombinant human HGF (rhHGF, R&D Systems) |  | about 1.6 times | about 2.5 times
